Laboratory results reported in US7452479B2, “Chemical base for fuel cell engine heat exchange coolant/antifreeze comprising 1,3-propanediol” (Shell Oil Company, priority 2001, dated 2008).
Read-outs that look alike come from different tables or passages of the source.

Experiments:
[1] = Physical property data; type: physicochemical
[2] = ASTM D1177 freeze point; type: physicochemical
Source text: FIG. 1 illustrates the aqueous solution freeze point characteristics of the 1,3-propanediol and GM 6043 (EG). […] This could be an indication that actual protection against hard, damaging freezing is actually better, approaching the effective protection point of the EG-based product. […] We feel that the antifreeze properties of the chemistry are acceptable. Indeed a 50% solution would provide adequate protection against freezing in most geographies. TC in FIG. 1 is an internal designation for the PDO aqueous solutions at 50, 55, and 60 volume percent PDO.

| SMILES | Specific Gravity [1] | Freeze protection ([2]; 55% in water) | Appearance at the reported freeze point ([2]; aqueous solution) | Specific Gravity ([1]; 20° C.) |
| --- | --- | --- | --- | --- |
| OCCO [EG, ethylene glycol] | 1.115 | – | – | – |
| OCCCO [PDO, 1,3-propanediol] | – | equivalent to 50% EG | soft and slushy | 1.0526 |
| CC(O)CO (centres unmarked) [PG, propylene glycol] | – | – | – | 1.032 |
